# Test results from paper PMC3023919 (Chemistry & biology, 2010).
# How the values were obtained:
# [1] = target: hCB2 C175S (Homo sapiens, UniProt P34972, C175S); experiment: Saturation-binding assay with [^3H]-CP55940; details: HEK293 membranes; mean (95% CI)
# [2] = target: hCB2 WT (Homo sapiens, UniProt P34972); experiment: Saturation-binding assay with [^3H]-CP55940; details: HEK293 membranes; mean (95% CI)
# [3] = target: hCB2 C7.38(284)S (Homo sapiens, UniProt P34972, C284S); experiment: Saturation-binding assay with [^3H]-CP55940; details: HEK293 membranes; mean (95% CI)
# Chain of hCB2 C7.38(284)S (P34972 whole entry C284S): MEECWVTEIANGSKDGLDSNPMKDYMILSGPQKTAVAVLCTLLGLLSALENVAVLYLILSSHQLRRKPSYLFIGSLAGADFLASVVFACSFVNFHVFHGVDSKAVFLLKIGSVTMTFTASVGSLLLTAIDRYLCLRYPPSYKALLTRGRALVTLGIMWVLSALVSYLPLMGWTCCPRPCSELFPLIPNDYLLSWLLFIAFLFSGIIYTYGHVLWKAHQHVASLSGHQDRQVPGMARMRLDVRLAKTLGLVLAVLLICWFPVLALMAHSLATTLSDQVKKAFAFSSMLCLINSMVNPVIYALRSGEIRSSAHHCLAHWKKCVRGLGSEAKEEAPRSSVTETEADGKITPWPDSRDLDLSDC
# [4] = target: hCB2 C7.38(284)7.42(288)S (Homo sapiens, UniProt P34972, C284S/C288S); experiment: Saturation-binding assay with [^3H]-CP55940; details: HEK293 membranes; mean (95% CI)
# Chain of hCB2 C7.38(284)7.42(288)S (P34972 whole entry C284S/C288S): as the sequence (P34972 whole entry C284S) above, with C288S counted along it
# [5] = target: hCB2 C6.47(257)S (Homo sapiens, UniProt P34972, C257S); experiment: Saturation-binding assay with [^3H]-CP55940; details: HEK293 membranes; mean (95% CI)
# Chain of hCB2 C6.47(257)S (P34972 whole entry C257S): as the sequence (P34972 whole entry C284S) above, with C257S, S284C counted along it
# [6] = target: hCB2 C7.42(288)A (Homo sapiens, UniProt P34972, C288A); experiment: Saturation-binding assay with [^3H]-CP55940; details: HEK293 membranes; mean (95% CI)
# Chain of hCB2 C7.42(288)A (P34972 whole entry C288A): as the sequence (P34972 whole entry C284S) above, with S284C, C288A counted along it
# [7] = target: hCB2 C313S (Homo sapiens, UniProt P34972, C313S); experiment: Saturation-binding assay with [^3H]-CP55940; details: HEK293 membranes; mean (95% CI)
# Chain of hCB2 C313S (P34972 whole entry C313S): as the sequence (P34972 whole entry C284S) above, with S284C, C313S counted along it
# [8] = target: hCB2 C7.38(284)7.42(288)A (Homo sapiens, UniProt P34972, C284A/C288A); experiment: Saturation-binding assay with [^3H]-CP55940; details: HEK293 membranes; mean (95% CI)
# Chain of hCB2 C7.38(284)7.42(288)A (P34972 whole entry C284A/C288A): as the sequence (P34972 whole entry C284S) above, with S284A, C288A counted along it
# [9] = target: hCB2 C137S (Homo sapiens, UniProt P34972, C134S); experiment: Saturation-binding assay with [^3H]-CP55940; details: HEK293 membranes; mean (95% CI)
# Chain of hCB2 C137S (P34972 whole entry C134S): as the sequence (P34972 whole entry C284S) above, with C134S, S284C counted along it
# [10] = target: hCB2 C7.42(288)S (Homo sapiens, UniProt P34972, C288S); experiment: Saturation-binding assay with [^3H]-CP55940; details: HEK293 membranes; mean (95% CI)
# Chain of hCB2 C7.42(288)S (P34972 whole entry C288S): as the sequence (P34972 whole entry C284S) above, with S284C, C288S counted along it
# [11] = target: hCB2 C7.38(284)A (Homo sapiens, UniProt P34972, C284A); experiment: Saturation-binding assay with [^3H]-CP55940; details: HEK293 membranes; mean (95% CI)
# Chain of hCB2 C7.38(284)A (P34972 whole entry C284A): as the sequence (P34972 whole entry C284S) above, with S284A counted along it
# [12] = target: hCB2 C1.39(40)S (Homo sapiens, UniProt P34972, C40S); experiment: Saturation-binding assay with [^3H]-CP55940; details: HEK293 membranes, mean (95% CI)
# Chain of hCB2 C1.39(40)S (P34972 whole entry C40S): as the sequence (P34972 whole entry C284S) above, with C40S, S284C counted along it
# [13] = test system: hCB2 C6.47(257)S mutant; details: competitive binding with [^3H]-WIN55212-2; ref Pei et al., 2008; cited from earlier work
# [14] = target: hCB2; details: read-out: hCB2 Ki; ref Rinaldi-Carmona et al., 1998; cited from earlier work
# Chain of hCB2 WT (P34972 whole entry): as the sequence (P34972 whole entry C284S) above, with S284C counted along it
# Chain of hCB2 C175S (P34972 whole entry C175S): as the sequence (P34972 whole entry C284S) above, with C175S, S284C counted along it
Molecule,[^3H]-CP55940 Bmax [1],[^3H]-CP55940 Bmax [2],[^3H]-CP55940 Bmax [3],[^3H]-CP55940 Bmax [4],[^3H]-CP55940 Bmax [5],[^3H]-CP55940 Bmax [6],[^3H]-CP55940 Bmax [7],[^3H]-CP55940 Bmax [8],[^3H]-CP55940 Bmax [9],[^3H]-CP55940 Bmax [10],[^3H]-CP55940 Bmax [11],[^3H]-CP55940 Bmax [12],[^3H]-CP55940 Bmax ([12]; listed as CP55940),increased affinity relative to WT hCB2 [13],Ki [14]
CCCCCCC(C)(C)c1ccc([C@@H]2C[C@H](O)CC[C@H]2CCCO)c(O)c1 [[^3H]-CP55940],1.69 (1.61~1.78) pmol/mg,1.68 (1.61~1.74) pmol/mg,1.28 (1.21~1.36) pmol/mg,1.38 (1.28~1.48) pmol/mg,1.58 (1.50~1.66) pmol/mg,1.93 (1.69~2.17) pmol/mg,1.07 (1.01~1.13) pmol/mg,1.12 (1.04~1.20) pmol/mg,1.50 (1.31~1.70) pmol/mg,1.07 (1.01~1.13) pmol/mg,1.15 (1.03~1.26) pmol/mg,5.45 (4.99~5.92) pmol/mg,5.45 pmol/mg,–,–
SR144528,–,–,–,–,–,–,–,–,–,–,–,–,–,2-3 fold,0.6 nM
